Measured values reported in the supplement of paper PMC8617591.

What was measured:
[1] = system: Mycobacterium tuberculosis Erdman (autoluminescent); test: Einf, fitted maximum growth inhibition of three-drug combination (fraction); higher = stronger maximal inhibition
Procedure: (§1)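 DiaMOND equipotent three-drug combination dose responses (10 doses, 1.5- or 2-fold spacing, centred on IC90) against autoluminescent M. tuberculosis Erdman in 8 in vitro models. Read-out is OD600, or luminescence for the intracellular and dormancy models, normalised to untreated wells. Hill-fit Einf, AUC25 and GRinf are potency metrics; FIC50 and FIC90 are total Loewe fractional inhibitory concentrations as log2 (negative = synergy).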

[2] = system: Mycobacterium tuberculosis Erdman (autoluminescent); test: AUC25, normalised area under dose response up to IC25 (three-drug combination) (fraction (0-1)); higher = more potent at low dose
Procedure: as §1

[3] = system: Mycobacterium tuberculosis Erdman (autoluminescent); test: GRinf, maximum normalised growth rate inhibition (three-drug combination) (unitless (-1 to 1)); higher = less effect (negative = killing)
Procedure: as §1

[4] = system: Mycobacterium tuberculosis Erdman (autoluminescent); test: total FIC90 (Loewe) at 90% inhibition, three-drug combination (log2); higher = more antagonistic
Procedure: as §1

[5] = system: Mycobacterium tuberculosis Erdman (autoluminescent); test: total FIC50 (Loewe) at 50% inhibition, three-drug combination (log2); higher = more antagonistic
Procedure: as §1

CC(=O)NC[C@H]1CN(c2ccc(N3CCOCC3)c(F)c2)C(=O)O1 [linezolid] + NC(=O)c1cnccn1 [pyrazinamide] + CO[C@H]1/C=C/O[C@@]2(C)Oc3c(C)c(O)c4c(O)c(c(/C=N/N5CCN(C6CCCC6)CC5)c(O)c4c3C2=O)NC(=O)/C(C)=C\C=C\[C@H](C)[C@H](O)[C@@H](C)[C@@H](O)[C@@H](C)[C@H](OC(C)=O)[C@@H]1C [rifapentine]
Details	AUC25, [2]	Einf, [1]	GRinf, [3]	total FIC50, [5]	total FIC90, [4]
in vitro model: acidic pH 5.7, time point: constant (~7 days, model-specific)	0.105	0.91	-0.206	0.0539	–
in vitro model: acidic pH 5.7, time point: terminal (~4-5 doublings, model-specific)	0.0872	0.992	-0.258	-0.0159	–
in vitro model: intracellular J774, time point: constant = terminal	–	0.947	-0.174	–	-0.0473

Details	AUC25, [2]	Einf, [1]	GRinf, [3]	total FIC50, [5]	total FIC90, [4]
in vitro model: butyrate, time point: constant (~7 days, model-specific)	0.0966	0.892	0.08	-0.0866	–
in vitro model: butyrate, time point: terminal (~4-5 doublings, model-specific)	0.0673	0.94	0.0873	0.038	-0.132
in vitro model: cholesterol 0.05 mM, time point: constant (~7 days, model-specific)	0.143	0.758	-0.43	–	–
in vitro model: cholesterol 0.05 mM, time point: terminal (~4-5 doublings, model-specific)	0.139	0.938	-0.446	0.219	–
in vitro model: cholesterol-high 0.2 mM, time point: constant (~7 days, model-specific)	0.112	0.952	-0.497	0.301	–
in vitro model: cholesterol-high 0.2 mM, time point: terminal (~4-5 doublings, model-specific)	0.0909	1	-0.945	0.319	-0.0261
in vitro model: dormancy (butyrate + nitrate, low O2), time point: constant (~7 days, model-specific)	0.0577	0.867	0.245	0.405	0.766
in vitro model: dormancy (butyrate + nitrate, low O2), time point: terminal (~4-5 doublings, model-specific)	0.0343	0.976	-0.12	0.486	0.153
in vitro model: standard 7H9 glycerol, time point: constant = terminal	0.0547	0.876	0.183	0.187	–
in vitro model: valerate, time point: constant (~7 days, model-specific)	0.0698	0.865	0.0833	-0.277	–
in vitro model: valerate, time point: terminal (~4-5 doublings, model-specific)	0.0324	0.921	0.0692	-0.0139	-0.406

CC(=O)NC[C@H]1CN(c2ccc(N3CCOCC3)c(F)c2)C(=O)O1 [linezolid] + NC(=O)c1cnccn1 [pyrazinamide] + CO[C@H]1/C=C/O[C@@]2(C)Oc3c(C)c(O)c4c(O)c(c(/C=N/N5CCN(C)CC5)c(O)c4c3C2=O)NC(=O)/C(C)=C\C=C\[C@H](C)[C@H](O)[C@@H](C)[C@@H](O)[C@@H](C)[C@H](OC(C)=O)[C@@H]1C [rifampicin]
Details	AUC25, [2]	Einf, [1]	GRinf, [3]	total FIC50, [5]	total FIC90, [4]
in vitro model: acidic pH 5.7, time point: constant (~7 days, model-specific)	0.0897	0.883	-0.255	0.175	–
in vitro model: acidic pH 5.7, time point: terminal (~4-5 doublings, model-specific)	0.0731	0.986	-0.249	0.189	–
in vitro model: intracellular J774, time point: constant = terminal	–	0.953	-0.411	–	-0.0717

Details	AUC25, [2]	Einf, [1]	GRinf, [3]	total FIC50, [5]	total FIC90, [4]
in vitro model: butyrate, time point: constant (~7 days, model-specific)	0.0912	0.889	0.0887	-0.0235	0.328
in vitro model: butyrate, time point: terminal (~4-5 doublings, model-specific)	0.075	0.94	0.0909	-0.114	-0.413
in vitro model: cholesterol 0.05 mM, time point: constant (~7 days, model-specific)	0.141	0.702	-0.117	–	–
in vitro model: cholesterol 0.05 mM, time point: terminal (~4-5 doublings, model-specific)	0.127	0.929	-0.289	0.713	–
in vitro model: cholesterol-high 0.2 mM, time point: constant (~7 days, model-specific)	0.116	0.926	-0.72	0.321	–
in vitro model: cholesterol-high 0.2 mM, time point: terminal (~4-5 doublings, model-specific)	0.104	0.995	-0.826	0.598	0.554
in vitro model: dormancy (butyrate + nitrate, low O2), time point: constant (~7 days, model-specific)	0.0758	0.893	0.203	0.486	0.378
in vitro model: dormancy (butyrate + nitrate, low O2), time point: terminal (~4-5 doublings, model-specific)	0.0314	0.972	-0.277	0.208	-0.126
in vitro model: standard 7H9 glycerol, time point: constant = terminal	0.0779	0.908	0.119	-0.168	–
in vitro model: valerate, time point: constant (~7 days, model-specific)	0.0571	0.853	0.1	0.122	–
in vitro model: valerate, time point: terminal (~4-5 doublings, model-specific)	0.0305	0.925	0.0656	0.211	-0.35

CC(=O)NC[C@H]1CN(c2ccc(N3CCOCC3)c(F)c2)C(=O)O1 [linezolid] + O=[N+]([O-])c1cn2c(n1)OC[C@@H](OCc1ccc(OC(F)(F)F)cc1)C2 [pretomanid] + CO[C@H]1/C=C/O[C@@]2(C)Oc3c(C)c(O)c4c(O)c(c(/C=N/N5CCN(C6CCCC6)CC5)c(O)c4c3C2=O)NC(=O)/C(C)=C\C=C\[C@H](C)[C@H](O)[C@@H](C)[C@@H](O)[C@@H](C)[C@H](OC(C)=O)[C@@H]1C [rifapentine]
Details	AUC25, [2]	Einf, [1]	GRinf, [3]	total FIC50, [5]	total FIC90, [4]
in vitro model: acidic pH 5.7, time point: constant (~7 days, model-specific)	0.0833	0.887	0.0321	0.893	–
in vitro model: acidic pH 5.7, time point: terminal (~4-5 doublings, model-specific)	0.0609	0.978	0.00722	0.838	0.632
in vitro model: intracellular J774, time point: constant = terminal	–	0.953	-0.276	–	0.646

Details	AUC25, [2]	Einf, [1]	GRinf, [3]	total FIC50, [5]	total FIC90, [4]
in vitro model: butyrate, time point: constant (~7 days, model-specific)	0.0937	0.91	-0.0425	0.403	0.09
in vitro model: butyrate, time point: terminal (~4-5 doublings, model-specific)	0.0716	0.955	0.0296	0.296	0.336
in vitro model: cholesterol 0.05 mM, time point: constant (~7 days, model-specific)	0.142	0.677	-0.167	0.533	–
in vitro model: cholesterol 0.05 mM, time point: terminal (~4-5 doublings, model-specific)	0.127	0.89	-0.198	0.278	0.6
in vitro model: cholesterol-high 0.2 mM, time point: constant (~7 days, model-specific)	0.0858	0.912	-0.159	0.139	0.124
in vitro model: cholesterol-high 0.2 mM, time point: terminal (~4-5 doublings, model-specific)	0.095	1	-0.71	0.348	0.313
in vitro model: dormancy (butyrate + nitrate, low O2), time point: constant (~7 days, model-specific)	0.0497	0.894	0.223	0.906	0.707
in vitro model: dormancy (butyrate + nitrate, low O2), time point: terminal (~4-5 doublings, model-specific)	0.0403	0.979	-0.0764	0.858	0.899
in vitro model: standard 7H9 glycerol, time point: constant = terminal	0.0904	0.932	-0.132	0.424	0.754
in vitro model: valerate, time point: constant (~7 days, model-specific)	0.159	0.913	-0.446	-1.08	–
in vitro model: valerate, time point: terminal (~4-5 doublings, model-specific)	0.125	0.966	-0.15	-0.336	1.3

CC(=O)NC[C@H]1CN(c2ccc(N3CCOCC3)c(F)c2)C(=O)O1 [linezolid] + O=[N+]([O-])c1cn2c(n1)OC[C@@H](OCc1ccc(OC(F)(F)F)cc1)C2 [pretomanid] + CO[C@H]1/C=C/O[C@@]2(C)Oc3c(C)c(O)c4c(O)c(c(/C=N/N5CCN(C)CC5)c(O)c4c3C2=O)NC(=O)/C(C)=C\C=C\[C@H](C)[C@H](O)[C@@H](C)[C@@H](O)[C@@H](C)[C@H](OC(C)=O)[C@@H]1C [rifampicin]
Details	AUC25, [2]	Einf, [1]	GRinf, [3]	total FIC50, [5]	total FIC90, [4]
in vitro model: acidic pH 5.7, time point: constant (~7 days, model-specific)	0.0793	0.893	-0.221	0.745	–
in vitro model: acidic pH 5.7, time point: terminal (~4-5 doublings, model-specific)	0.0641	0.987	-0.265	0.832	0.521
in vitro model: intracellular J774, time point: constant = terminal	–	0.98	-0.287	–	0.288

Details	AUC25, [2]	Einf, [1]	GRinf, [3]	total FIC50, [5]	total FIC90, [4]
in vitro model: butyrate, time point: constant (~7 days, model-specific)	0.0869	0.896	0.0695	0.127	0.148
in vitro model: butyrate, time point: terminal (~4-5 doublings, model-specific)	0.0669	0.948	0.0615	0.00331	-0.305
in vitro model: cholesterol 0.05 mM, time point: constant (~7 days, model-specific)	0.128	0.66	-0.0769	0.0451	–
in vitro model: cholesterol 0.05 mM, time point: terminal (~4-5 doublings, model-specific)	0.127	0.895	-0.203	0.545	-0.354
in vitro model: cholesterol-high 0.2 mM, time point: constant (~7 days, model-specific)	0.0921	0.885	-0.118	0.326	1.11
in vitro model: cholesterol-high 0.2 mM, time point: terminal (~4-5 doublings, model-specific)	0.0881	0.972	-0.505	0.645	0.499
in vitro model: dormancy (butyrate + nitrate, low O2), time point: constant (~7 days, model-specific)	0.0572	0.911	0.214	0.855	0.28
in vitro model: dormancy (butyrate + nitrate, low O2), time point: terminal (~4-5 doublings, model-specific)	0.0401	0.97	-0.0505	0.25	0.29
in vitro model: standard 7H9 glycerol, time point: constant = terminal	0.0674	0.915	0.0995	0.0346	-0.714
in vitro model: valerate, time point: constant (~7 days, model-specific)	0.1	0.89	-0.015	0.394	–
in vitro model: valerate, time point: terminal (~4-5 doublings, model-specific)	0.0505	0.925	0.0379	0.622	0.278

CC(=O)NC[C@H]1CN(c2ccc(N3CCOCC3)c(F)c2)C(=O)O1 [linezolid] + O=[N+]([O-])c1cn2c(n1)OC[C@@H](OCc1ccc(OC(F)(F)F)cc1)C2 [pretomanid] + NC(=O)c1cnccn1 [pyrazinamide]
Details	AUC25, [2]	Einf, [1]	GRinf, [3]	total FIC50, [5]	total FIC90, [4]
in vitro model: acidic pH 5.7, time point: constant (~7 days, model-specific)	0.0949	0.856	-0.473	0.268	–
in vitro model: acidic pH 5.7, time point: terminal (~4-5 doublings, model-specific)	0.0835	0.975	-0.473	0.91	-0.88
in vitro model: intracellular J774, time point: constant = terminal	–	0.986	-0.287	–	0.7

Details	AUC25, [2]	Einf, [1]	GRinf, [3]	total FIC50, [5]	total FIC90, [4]
in vitro model: butyrate, time point: constant (~7 days, model-specific)	0.104	0.885	0.0996	-0.0692	–
in vitro model: butyrate, time point: terminal (~4-5 doublings, model-specific)	0.0881	0.929	0.102	-0.254	0.667
in vitro model: cholesterol 0.05 mM, time point: constant (~7 days, model-specific)	0.14	0.706	-0.191	–	–
in vitro model: cholesterol 0.05 mM, time point: terminal (~4-5 doublings, model-specific)	0.145	0.93	-0.318	0.461	–
in vitro model: cholesterol-high 0.2 mM, time point: constant (~7 days, model-specific)	0.108	0.902	-0.152	0.147	–
in vitro model: cholesterol-high 0.2 mM, time point: terminal (~4-5 doublings, model-specific)	0.113	1	-1	0.0501	0.419
in vitro model: dormancy (butyrate + nitrate, low O2), time point: constant (~7 days, model-specific)	0.056	0.907	0.16	0.49	0.622
in vitro model: dormancy (butyrate + nitrate, low O2), time point: terminal (~4-5 doublings, model-specific)	0.0409	0.985	-0.287	0.47	0.511
in vitro model: standard 7H9 glycerol, time point: constant = terminal	0.0884	0.926	0.0609	0.706	–
in vitro model: valerate, time point: constant (~7 days, model-specific)	0.102	0.808	0.0778	-0.628	–
in vitro model: valerate, time point: terminal (~4-5 doublings, model-specific)	0.0792	0.891	0.177	-0.429	1.41
